Results on one cell line are retold here after the supplement of paper PMC10307832.

Common to all, as to test: relative viability (nuclei count vs DMSO), 5 days (fraction); higher = more cells survive
Compound in the experiment “Ispinesib + Navitoclax”: Cc1ccc(C(=O)N(CCCN)[C@@H](c2nc3cc(Cl)ccc3c(=O)n2Cc2ccccc2)C(C)C)cc1 [Ispinesib] + CC1(C)CCC(c2ccc(Cl)cc2)=C(CN2CCN(c3ccc(C(=O)NS(=O)(=O)c4ccc(N[C@H](CCN5CCOCC5)CSc5ccccc5)c(S(=O)(=O)C(F)(F)F)c4)cc3)CC2)C1 [Navitoclax] (partner 0.5 µM)
In outline:
(§1)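 Cells from lung cancer lines were seeded into 1536-well plates and, one day later, dosed by pin tool. Treatments were either a single drug or a fixed dose of an anchor drug with five library-drug doses (not always all listed) in √10 steps. After 5 days, nuclei were stained in a one-step fixation (final 0.05% Triton X-100, 1% formaldehyde, 1 ug/ml Hoechst) and counted on 4× images, and relative viability is the treated-to-vehicle nuclei ratio, as the median of duplicate plates.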

Compound in the experiment “Linsitinib + Dasatinib”: C[C@]1(O)C[C@@H](c2nc(-c3ccc4ccc(-c5ccccc5)nc4c3)c3c(N)nccn32)C1 [Linsitinib] + Cc1nc(Nc2ncc(C(=O)Nc3c(C)cccc3Cl)s2)cc(N2CCN(CCO)CC2)n1 [Dasatinib] (partner 0.075 µM)
In outline: as §1

Compound in the experiment “Ispinesib + Decitabine”: Cc1ccc(C(=O)N(CCCN)[C@@H](c2nc3cc(Cl)ccc3c(=O)n2Cc2ccccc2)C(C)C)cc1 [Ispinesib] + Nc1ncn([C@H]2C[C@H](O)[C@@H](CO)O2)c(=O)n1 [Decitabine] (partner 2 µM)
In outline:
as §1

Compound in the experiment “Linsitinib + OSI-027”: C[C@]1(O)C[C@@H](c2nc(-c3ccc4ccc(-c5ccccc5)nc4c3)c3c(N)nccn32)C1 [Linsitinib] + COc1cccc2cc(-c3nc([C@H]4CC[C@H](C(=O)O)CC4)n4ncnc(N)c34)[nH]c12 [OSI-027] (partner 0.5 µM)
In outline:
as §1

As to UMC-11, the relative viability with Ispinesib + Navitoclax (first compound 0.001 µM) came to 0.314; with Ispinesib + Navitoclax (first compound 0.003162 µM) it was 0.371; with Ispinesib + Navitoclax (first compound 0.01 µM), 0.267; with Ispinesib + Navitoclax (first compound 0.03162 µM), 0.176; with Ispinesib + Navitoclax (first compound 0.1 µM), 0.216; with Linsitinib + Dasatinib (first compound 0.01 µM), 0.462. The relative viability in the experiment with Linsitinib + Dasatinib (first compound 0.03162 µM) was determined as 0.44; with Linsitinib + Dasatinib (first compound 0.1 µM), 0.501; with Linsitinib + Dasatinib (first compound 1 µM) it was 0.438; with Ispinesib + Decitabine (first compound 0.001 µM), 0.67; in the experiment with Ispinesib + Decitabine (first compound 0.003162 µM) it was 0.904; with Ispinesib + Decitabine (first compound 0.01 µM), 0.583. The relative viability with Ispinesib + Decitabine (first compound 0.03162 µM) stood at 0.28; with Ispinesib + Decitabine (first compound 0.1 µM) it was 0.23; in the experiment with Linsitinib + OSI-027 (first compound 0.01 µM), 0.468; with Linsitinib + OSI-027 (first compound 0.03162 µM), 0.433; with Linsitinib + OSI-027 (first compound 0.1 µM), 0.552; with Linsitinib + OSI-027 (first compound 1 µM), 0.432.
